The subject of one assay is SARS-CoV-2 virus. The note with it: read-out: IC50, in-vitro antiviral activity against the SARS-CoV-2 virus; cited from earlier work.
A further assay deals with SARS-CoV-2 PLpro (Severe acute respiratory syndrome coronavirus 2, UniProt P0DTD1). Put plainly: biochemical.

Like-named read-outs stand apart in the source and are kept apart here. Numbered stars: 1 amine (or outer) side, 2 acyl side, 3 side chain; on linkers, the order of the positions; unused ones are H or OH. Bridge positions count the residues as written; N and C are the ends. Square brackets hold non-standard residues; d marks the D form. Peptide text beside a SMILES is read from it. * marks the point of attachment. pTerphenylCO(4''-OnC5H11) = CCCCCOc1ccc(-c2ccc(-c3ccc(C(=O)*)cc3)cc2)cc1; Orn(4R-OH,5R-OH) = O=C([C@H](C[C@@H](O)[C@@H](O)N[*:3])N[*:1])[*:2]; hTyr(3S-OH,4S-OH) = N[C@H](C(=O)O)[C@H](O)[C@@H](O)c1ccc(O)cc1; Pro(3S-OH,4S-Me) = C[C@H]1CN[C@H](C(=O)O)[C@H]1O; Hyp = O=C(O)[C@@H]1C[C@@H](O)CN1

Regarding `CCCCCOc1ccc(-c2ccc(-c3ccc(C(=O)N[C@H]4C[C@@H](O)[C@@H](O)NC(=O)[C@@H]5[C@@H](O)[C@@H](C)CN5C(=O)[C@H]([C@@H](C)O)NC(=O)[C@H]([C@H](O)[C@@H](O)c5ccc(O)cc5)NC(=O)[C@@H]5C[C@@H](O)CN5C(=O)[C@H]([C@@H](C)O)NC4=O)cc3)cc2)cc1` [Anidulafungin] ({pTerphenylCO(4''-OnC5H11)}-[Orn(4R-OH,5R-OH)]T[Hyp][hTyr(3S-OH,4S-OH)]T[Pro(3S-OH,4S-Me)]; lactam 1-C), the IC50 (commonly the concentration at which inhibition is half-maximal) in the assay with SARS-CoV-2 virus is 4.64 µM. In addition, the “inhibitory activity against PLpro (in words)” value against SARS-CoV-2 PLpro (Ubiquitin-Rhodamine 110 Gly fluorescence intensity assay) is recorded as “low inhibitory activity”.
For `Cc1cc2nc3c(=O)[nH]c(=O)nc-3n(C[C@H](O)[C@H](O)[C@H](O)COP(=O)(O)OP(=O)(O)OC[C@H]3O[C@@H](n4cnc5c(N)ncnc54)[C@H](O)[C@@H]3O)c2cc1C` [FAD disodium], at SARS-CoV-2 PLpro (read-out: IC50 against SARS-CoV-2 PLpro), the IC50 is 12.4 µM.
As to `CC(C)(C)[C@@H]1NC(=O)O[C@@H]2CCC[C@H]2OC/C=C/C(F)(F)c2nc3ccccc3nc2O[C@@H]2C[C@@H](C(=O)N[C@]3(C(=O)NS(=O)(=O)C4(C)CC4)C[C@H]3C(F)F)N(C2)C1=O` [Glecaprevir], at SARS-CoV-2 PLpro, the IC50 is 36.8 µM.
In turn, `CO[C@H]1/C=C/O[C@@]2(C)Oc3c(C)c(O)c4c(O)c(c(/C=N/N5CCN(C6CCCC6)CC5)c(O)c4c3C2=O)NC(=O)/C(C)=C\C=C\[C@H](C)[C@H](O)[C@@H](C)[C@@H](O)[C@@H](C)[C@H](OC(C)=O)[C@@H]1C` [Rifapentine] had an IC50 against SARS-CoV-2 PLpro of 15.2 µM.

The record behind these values is paper PMC8604796 (Computers in Biology and Medicine, 2021).
